{"source": "paper PMC4992173", "about": "“Divergent synthesis and identification of the cellular targets of deoxyelephantopins” (Nature Communications, 2016)", "key": {"[1]": {"target": "T1, FLYWCH family member 2 (FLYWCH2) (Homo sapiens, UniProt Q96CP2)", "T1 construct": "endogenous in cells; host or cells: MCF7", "T1 sequence (Q96CP2 whole entry)": "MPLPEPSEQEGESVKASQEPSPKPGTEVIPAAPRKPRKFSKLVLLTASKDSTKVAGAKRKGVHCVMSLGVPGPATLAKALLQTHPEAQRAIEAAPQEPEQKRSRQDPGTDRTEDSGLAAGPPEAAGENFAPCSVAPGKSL", "test": "In situ competitive profiling in live MCF7 cells (LFQ): FLYWCH2", "type": "cell-based", "conditions": "protein FLYWCH2, 4 h, then 10 µM 24c, n=4", "description": "(§1) In our efforts to determine the direct molecular targets of deoxyelephantopin we first performed a gel-based competitive in situ proteomic profiling assay[41] […] While the greater conformational flexibility of probe 24c could potentially lead to more promiscuous target engagement relatively to deoxyelephantopin, it was favoured based on the fact that an alkyne moiety appended to the rigid scaffold of deoxyelephantopin may hinder some of its interactions. MCF7 cells were pretreated with various concentrations of deoxyelephantopin for 4 h, harvested, lysed and the lysates were treated with the fluorogenic probe 24c-Cy3 (10 μM; Supplementary Fig. 10). […] Furthermore, cells were pretreated with 20 μM concentration of deoxyelephantopin or 24c and the proteomic profiles were compared (Fig. 6b, Supplementary Fig. 11). Multiple bands were detected that were equally competed by both DEP and 24c, thus again confirming that 24c can be used as an acceptable clickable analogue of deoxyelephantopin in pulldown assays. Having established the optimal labelling conditions by SDS–PAGE, we next carried out a mass spectrometry-based competitive profiling assay[42] coupled with the method of stable isotope labelling of amino acids in culture (SILAC)[43]. […]\n(§2) Figure 6 Proteome-wide identification of deoxyelephantopin targets. […] Quantification was performed using label-free quantification (LFQ) method (n=4). […]"}, "[2]": {"target": "T2, Protein HGH1 homolog (HGH1) (Homo sapiens, UniProt Q9BTY7)", "T2 construct": "1,522 proteins were enriched from MCF7 cells by 10 μM probe 24c; endogenous in cells; host or cells: MCF7", "T2 sequence (Q9BTY7 whole entry)": "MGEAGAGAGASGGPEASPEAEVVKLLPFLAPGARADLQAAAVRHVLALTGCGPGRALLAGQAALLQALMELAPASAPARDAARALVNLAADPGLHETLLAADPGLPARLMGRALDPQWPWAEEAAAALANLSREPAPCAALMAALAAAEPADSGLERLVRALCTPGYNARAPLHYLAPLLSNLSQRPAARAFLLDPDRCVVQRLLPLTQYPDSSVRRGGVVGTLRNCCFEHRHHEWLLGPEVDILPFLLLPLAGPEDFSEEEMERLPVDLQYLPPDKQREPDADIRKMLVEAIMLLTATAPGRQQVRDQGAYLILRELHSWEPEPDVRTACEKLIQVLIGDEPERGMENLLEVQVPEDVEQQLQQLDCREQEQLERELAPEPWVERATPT", "test": "In situ competitive profiling in live MCF7 cells (LFQ): HGH1", "type": "cell-based", "conditions": "4 h, then 10 µM 24c, n=4", "description": "as §1, §2"}, "[3]": {"target": "T3, Glyoxylate reductase/hydroxypyruvate reductase (GRHPR) (Homo sapiens, UniProt Q9UBQ7)", "T3 construct": "endogenous in cells; host or cells: MCF7", "T3 sequence (Q9UBQ7 whole entry)": "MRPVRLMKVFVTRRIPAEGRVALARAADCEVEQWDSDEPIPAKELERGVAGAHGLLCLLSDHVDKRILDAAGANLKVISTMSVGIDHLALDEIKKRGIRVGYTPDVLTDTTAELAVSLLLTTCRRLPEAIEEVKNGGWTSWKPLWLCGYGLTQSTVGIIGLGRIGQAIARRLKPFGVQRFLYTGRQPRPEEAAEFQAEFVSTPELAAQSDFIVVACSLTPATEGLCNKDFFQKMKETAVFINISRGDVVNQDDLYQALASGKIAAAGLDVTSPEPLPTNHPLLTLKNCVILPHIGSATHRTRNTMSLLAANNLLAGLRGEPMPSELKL", "test": "In situ competitive profiling in live MCF7 cells (LFQ): GRHPR", "type": "cell-based", "conditions": "protein GRHPR, 4 h, then 10 µM 24c, n=4", "description": "as §1, §2"}, "[4]": {"target": "T4, Heme oxygenase 2 (HMOX2) (Homo sapiens, UniProt P30519)", "T4 construct": "endogenous in cells; host or cells: MCF7", "T4 sequence (P30519 whole entry)": "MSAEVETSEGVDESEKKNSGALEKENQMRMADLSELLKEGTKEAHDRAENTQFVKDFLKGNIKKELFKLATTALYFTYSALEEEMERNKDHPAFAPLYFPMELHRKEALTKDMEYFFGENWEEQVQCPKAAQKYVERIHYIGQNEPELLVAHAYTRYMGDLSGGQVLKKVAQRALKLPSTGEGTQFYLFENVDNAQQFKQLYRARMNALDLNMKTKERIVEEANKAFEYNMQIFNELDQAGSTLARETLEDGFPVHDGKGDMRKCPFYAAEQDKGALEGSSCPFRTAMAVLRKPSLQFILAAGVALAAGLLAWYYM", "test": "In situ competitive profiling in live MCF7 cells (LFQ): HMOX2", "type": "cell-based", "conditions": "protein HMOX2, 4 h, then 10 µM 24c, n=4", "description": "as §1, §2"}, "[5]": {"tested_on": "tumour growth and metastasis", "parameters": "method as in PMID 20105176", "conditions": "murine orthotopic breast cancer model, compared with paclitaxel; cited from earlier work"}, "[6]": {"target": "T5, PPARγ (Homo sapiens, UniProt P37231)", "T5 sequence (P37231 1-505)": "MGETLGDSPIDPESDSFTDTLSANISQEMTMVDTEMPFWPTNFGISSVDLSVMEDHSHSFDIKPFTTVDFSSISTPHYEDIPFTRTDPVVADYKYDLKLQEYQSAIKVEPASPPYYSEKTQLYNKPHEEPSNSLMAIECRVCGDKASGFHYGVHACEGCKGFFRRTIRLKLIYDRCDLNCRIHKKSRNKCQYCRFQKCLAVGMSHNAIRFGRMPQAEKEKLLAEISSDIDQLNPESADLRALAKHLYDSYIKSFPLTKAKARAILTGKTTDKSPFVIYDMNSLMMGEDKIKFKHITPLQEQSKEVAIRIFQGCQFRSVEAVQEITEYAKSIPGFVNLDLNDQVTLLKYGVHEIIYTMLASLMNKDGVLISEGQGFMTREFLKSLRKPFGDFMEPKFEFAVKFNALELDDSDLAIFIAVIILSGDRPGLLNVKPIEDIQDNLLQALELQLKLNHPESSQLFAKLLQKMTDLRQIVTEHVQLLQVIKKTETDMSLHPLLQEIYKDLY", "test": "Gel-based in situ competition of PPARγ overexpressed in HeLa cells", "type": "cell-based", "parameters": "host or cells: HeLa", "conditions": "HeLa cells expressing PPARγ, 20 µM in situ 4 h, then 10 µM 24c-Cy3"}, "[7]": {"tested_on": "PPARγ", "conditions": "cited from earlier work"}}, "data": [{"smiles": "C=C(C)C(=O)O[C@H]1CC2=C[C@@H](C/C(C)=C/[C@H]3OC(=O)C(=C)[C@H]13)OC2=O", "note": "[deoxyelephantopin]", "values": [{"measurement": "LFQ ratio 20 µM Deoxyelephantopin/DMSO with 24c", "setting": "[1]", "value": 0.19}, {"measurement": "LFQ ratio 20 µM Deoxyelephantopin/DMSO with 24c", "setting": "[2]", "value": 0.00}, {"measurement": "LFQ ratio 20 µM Deoxyelephantopin/DMSO with 24c", "setting": "[3]", "value": 0.00}, {"measurement": "LFQ ratio 20 µM Deoxyelephantopin/DMSO with 24c", "setting": "[4]", "value": 0.14}, {"measurement": "suppression of tumour growth and metastasis", "setting": "[5]", "value": "more effective than paclitaxel"}, {"measurement": "competition of PPARγ labelling by 24c-Cy3", "setting": "[6]", "value": "efficient competition"}, {"measurement": "action on PPARγ (SPR)", "setting": "[7]", "value": "partial agonist"}]}]}
